Laboratory results as given in ChEMBL document CHEMBL1144651, “Concise synthesis of dideoxy-epigallocatechin gallate (DO-EGCG) and evaluation of its anti-influenza virus activity” (Bioorg Med Chem Lett, 2007).

Tested on: Influenza A virus
Experiment: Antiviral activity against Influenza A virus (A/Memphis/1/71(H3N2)) in MDCK cells after 16 hrs by focus forming assay
Format: functional, organism-based, Influenza A virus (A/Memphis/1/1971(H3N2))

| SMILES | IC50 |
| --- | --- |
| O=C(O[C@@H]1Cc2ccccc2O[C@@H]1c1cc(O)c(O)c(O)c1)c1cc(O)c(O)c(O)c1 | 11.9 µM |
| O=C(O[C@@H]1Cc2c(O)cc(O)cc2O[C@@H]1c1cc(O)c(O)c(O)c1)c1cc(O)c(O)c(O)c1 [EPIGALOCATECHIN GALLATE] | 41.2 µM |
